Experimental data taken from patent publication US6635030B1 (B.H.B. LLC, priority 1999, dated 2003).

Assay: Empiric porcine aortic contrast enhancement, dynamic CT after i.v. contrast injection
Assay type: in vivo, pig
Protocol: In order to test the mathematical solutions, a porcine study was conducted. All animal care and procedures performed were approved by the Institutional Animal Study Committee. […] Each session was separated by at least two days. Two pigs had all their sessions within a week, while the other two pigs had their first two and last sessions delays 4-5 weeks, which results in an increase in their weight to 35-40 kg in their last session. In each session, the pig was anesthetized, intubated, and underwent scanning for three or four sets of images obtained in random order. During scanning, each pig was ventilated with oxygen and low tidal volume to minimize breathing motion artifact. […] Each set of scans were 45-60 minutes apart to minimize the effect of prior contrast administration. All CT scanning was performed with a Somatom Plus-S scanner (Siemens Medical Systems, […].) using a one-second scanning time and a one-second interscan delay. Three types of injection schemes were tested: uniphasic, biphasic, and multiphasic. Biphasic injections were performed by a prior art power injector which was used in routine clinical CT scanning while uniphasic and multiphasic injections were conducted with a power injector which was invented for achieving the required protocols. This power injector was capable of delivering contrast medium in various uniphasic or multiphasic injection algorithms, as is explained in greater detail below. The multiphasic injection rate is determined by an initial injection rate and an exponential decay coefficient, as shown in FIG. 3. […] Most injections were performed with the initial injection rate of 2 mL/s. […] Three differential exponential decay coefficients (0.007, 0.017, 0.026) were tested. […] These were the three smallest discrete increments allowed in the prototype of the inventive power injector. Decay coefficient higher than 0.03 was not used because it was evident that a further increase in the coefficient would deviate further away from uniform vascular enhancements. A uniphasic injection was determined as being equivalent to a zero exponential decay coefficient where the injection rate remains constant at an initial injection rate throughout the injection duration. […] Approximately half of the total contrast volume was injected in each phase of the biphasic injections. […] Attenuation values of the aorta were measured from post-contrast scans (at the same level as the pre-contrast scans) using a circular region of interest (ROI) at the center of the aorta. Contrast enhancement was calculated as the absolute different in attenuation value between the pre- and post-contrast scans. […] Means and standard deviations were also computed. The results are now explained.

[1] = 25 kg pig, 50 mL of 282 mgI/mL contrast medium, uniphasic 2 mL/sec
[2] = four pigs, 50 mL, 2 mL/s initial injection rate, decay constant 0.017
[3] = four pigs, 70 mL, 2 mL/s initial injection rate, decay constant 0.017

time to the peak aortic enhancement (empiric) [1]: 26 s
Structure (SMILES): CNC(=O)c1c(I)c(NC(C)=O)c(I)c(C(=O)O)c1I.CNC[C@H](O)[C@@H](O)[C@H](O)[C@H](O)CO [contrast medium, iothalmate meglumine]
magnitude of the peak aortic enhancement (empiric) [1]: 250 HU
increase of duration of enhancement within 90% of the peak (90%DCE), multiphasic vs uniphasic injection, mean [2]: 81%
reduction of peak aortic enhancement (PA), multiphasic vs uniphasic injection, mean [2]: 19%
decrease of peak aortic enhancement (PA), multiphasic vs uniphasic injection [3]: 18%
increase of duration of enhancement within 90% of the peak (90%DCE), multiphasic vs uniphasic injection [3]: 94%
